From a melting point compilation (Tetko et al.; mined from patent text by program, amines drawn as free bases though some values may be those of a salt)

Compared with CS(=O)(=O)Nc1ccc(NCC(=O)N2CCC(Cc3ccc(Cl)cc3)CC2)cc1, Cn1cc(C(=O)NCc2ccc(Cl)cc2)c(=O)c2cc(CN3CCCOCC3)ccc21 is higher in melting point: 70 °C for the first, 178 to 179 °C for the second.

Compared with CCCCc1nc2ccccc2n1Cc1ccc(C(=O)O)c(C)c1, CCCN(Cc1ccc(-c2ccccc2C(=O)C(=O)O)cc1)c1ncccc1C(=O)O is lower in melting point: 191 to 192 °C for the first, 179 to 180 °C for the second.

First: Cn1c(C=NNCCO)cnc1[N+](=O)[O-]
Second: CCCc1nn(-c2ccc(C(F)(F)F)cn2)cc1CO
The melting point of the first is higher: 138 to 140 °C for the first, 120 to 121 °C for the second.

First: ClC1=NC2CCCc3c(Cl)ccc(c32)N1 (centres undefined)
Second: O=CC(=O)c1ccc2c(c1)CCC2
The melting point of the first is higher: 190 to 192 °C for the first, 100 to 112 °C for the second.

First: O=C1c2ccccc2C(=O)N1CCCOc1ccncc1
Second: O=C(O)C(c1ccccc1)N1CC(N2C(=O)c3ccccc3C2=O)C1=O (centres undefined)
The melting point of the first is lower: 81 to 82 °C for the first, 176 to 183 °C for the second.

Compared with Cc1ccc(-c2ccc3c(c2)C=C(C(=O)Nc2ccc(CSCc4ccccc4)cc2)CCO3)cc1, CC(=O)c1ccc(-c2ccc(OCc3nc4ccccc4s3)cc2)c(F)c1 is higher in melting point: 145 to 146 °C for the first, 170 to 172 °C for the second.

First: COc1ccc(-c2c(NCCc3ccc(C(C)(C)C)cc3)c(=O)c2=O)cc1
Second: CCOC(=O)C1=C(C)N=C(SCc2ccc(OC)cc2)N(C(=O)OCC)C1c1cccc(C#N)c1 (centres undefined)
The melting point of the first is higher: 258 to 260 °C for the first, 85 to 87 °C for the second.

Compared with Cc1nc(N2CCc3ccccc3CC2)c(C#N)c(=O)n1OC(C)C, O=C1CCCn2c(=O)n(Cc3ccccc3)c3cccc1c32 is higher in melting point: 127 to 128 °C for the first, 135 °C for the second.

First: Fc1cccc(CCc2nnc(-c3ccnc(NCCCc4ccccc4)c3)o2)c1
Second: Cc1cccc(-c2n[nH]cc2-c2ccnc(-c3ccc(OCc4cn(C)cn4)cc3)c2)n1
The melting point of the first is lower: 91 to 92 °C for the first, 191 °C for the second.

Compared with O=C(O)CCCCCCC1C(=O)CCC1=O, CC(C)(CCCCC(=O)CCCCC1(C(=O)O)CCC1)C(=O)O is lower in melting point: 131 to 141 °C for the first, 53 to 55 °C for the second.

NC(Cc1ccc(F)cc1)=NO and O=[N+]([O-])c1ccc2c(c1)N(C1CCN(CCc3ccc(F)cc3)CC1)CC2 fall in the same range of melting point: 104 to 106 °C for the first, 104 to 106 °C for the second.

First: C=CCn1c(Oc2cnn(-c3c(Cl)cc(C(F)(F)F)cc3Cl)n2)nc(C#N)c1C#N
Second: O=S(=O)(CCl)Nc1ccnn1-c1c(Cl)cc(C(F)(F)F)cc1Cl
The melting point of the first is higher: 121 to 131 °C for the first, 63 to 66 °C for the second.

First: COC(=O)C(=CC(c1ccccc1)c1ccccc1)C(=O)OC
Second: CNn1cc(-c2ccccc2)c2ccccc21
The melting point of the first is higher: 120 to 122 °C for the first, 60 to 62 °C for the second.

First: CC(=O)CC(=O)NCc1ccccc1
Second: NC(=O)c1nc(-c2ccccc2)c[nH]1
The melting point of the first is lower: 84 to 86 °C for the first, 210 to 211 °C for the second.

First: CC(=O)Nc1c(-c2c(F)cc(F)cc2F)c(Cl)nc2ncnn12
Second: CC(Oc1ccc(F)cc1F)c1ccnc2ncnn12 (centres undefined)
The melting point of the first is higher: 108 to 111 °C for the first, 96 to 97 °C for the second.

First: O=C1SC(Cc2ccc(OCCON=Cc3ccc(-c4ccccc4)nc3)cc2)C(=O)N1C(c1ccccc1)(c1ccccc1)c1ccccc1 (centres undefined)
Second: CC[C@H](C)[C@H](NC(=O)N(C)Cc1ccccn1)C(=O)N[C@@H](Cc1ccccc1)[C@@H](O)C[C@H](Cc1ccccc1)NC(=O)OCc1cncs1
The melting point of the first is higher: 146 to 148 °C for the first, 66 to 69 °C for the second.

First: CCN(CC)C(=O)n1ccc(S(=O)(=O)c2cc(Cl)cc(Cl)c2)n1
Second: Cc1ccc(S(=O)(=O)OCCCn2c(=NC(=O)C(F)(F)F)sc3cc(OC(F)(F)F)ccc32)cc1
The melting point of the first is lower: 103 to 106 °C for the first, 139 °C for the second.

COC(=O)NC(=O)Cc1nc(-c2cc(C(C)(C)C)c(O)c(C(C)(C)C)c2)oc1C and COC(=O)C(CCSC)NCC(=O)Nc1cccc2c1C(=O)c1c(NC(=O)CNC(CCSC)C(=O)OC)cccc1C2=O (centres undefined) cannot be ordered by melting point: 125 to 127 °C for the first, 126 to 127 °C for the second.

Compared with CCCc1c(-c2ccc(Cl)cc2)n[nH]c1-c1cccs1, C[C@]1(COc2ccc(-c3nc(-c4ccc(Cl)cc4)co3)cc2)Cn2cc([N+](=O)[O-])nc2O1 is higher in melting point: 129 to 132 °C for the first, 249 to 252 °C for the second.

First: CC1(C(=O)NN)C(=O)Nc2cc3[nH]c(-c4ccncc4)nc3cc21 (centres undefined)
Second: CC(=O)OC1CSC(Oc2ccc(-c3ccncc3)nc2Cl)C(OC(C)=O)C1OC(C)=O (centres undefined)
The melting point of the first is higher: greater than 300 °C for the first, 179 °C for the second.

First: COc1cc(-c2nc(-c3cc(OC)c(OCc4ccccc4)c(OC)c3)c(-c3cc(OC)c(OCc4ccccc4)c(OC)c3)o2)cc(OC)c1OCc1ccccc1
Second: c1ccc2c(c1)c1ccccc1c1[nH]cnc21
The melting point of the first is lower: 80 to 120 °C for the first, greater than 375 °C for the second.

Compared with Cn1c(C(F)(F)F)cc(=O)n(-c2cc(N)c(Cl)cc2F)c1=O, Cc1c(F)c(Oc2ccc(F)c(F)c2)nc(Oc2cc(C(F)(F)F)nn2C)c1F is lower in melting point: 132 to 135 °C for the first, 93 °C for the second.

First: CN1C(=O)Cn2cnnc2-c2cc(Cl)ccc21
Second: COc1nccnc1NS(=O)(=O)c1ccc(Cl)s1
The melting point of the first is higher: 272 to 274 °C for the first, 119 to 120 °C for the second.

Compared with O=C(O)/C=C/c1ccc(-c2nc3c(=O)n(CC4CCCCC4)c(=S)n(CC4CCCCC4)c3[nH]2)cc1, CC(=O)N1CC(C)(C)CN=C1N(N=CC(C=Cc1ccc(C(F)(F)F)cc1)=Cc1ccc(C(F)(F)F)cc1)C(C)=O is lower in melting point: greater than 300 °C for the first, 70 to 72 °C for the second.

For Nc1nc(=O)n(C2CC(O)C(CO)O2)cc1-c1ccccn1 (centres undefined), the melting point was 197 to 198 °C.
